# Experimental data from patent US20240327429A1, “[1,3]Thiazolo[4,5-d]-pyrimidon-7-ones as inhibitors of NOX4” (Boehringer Ingelheim International GmbH, priority 2023, published 2024).
# Where “and” joins values, the source holds several entries; their conditions need not be identical. Equal values may be shown once.
# Assays:
# human NOX3 (hNOX3) = biological target: T1, human NOX3 (hNOX3) (Homo sapiens, UniProt Q9HBY0); test: NOX3 inhibition assay (L-012), HEK293 cells stably overexpressing human NOX3; format: cell-based; settings: HEK293-hNOX3, PMA stimulated
# T1 construct: pLV-CMV-hNOX3-puro (NM_015718.3); host or cells: HEK293 (CLS GmbH), lentiviral transduction
# T1 sequence (Q9HBY0 1-568): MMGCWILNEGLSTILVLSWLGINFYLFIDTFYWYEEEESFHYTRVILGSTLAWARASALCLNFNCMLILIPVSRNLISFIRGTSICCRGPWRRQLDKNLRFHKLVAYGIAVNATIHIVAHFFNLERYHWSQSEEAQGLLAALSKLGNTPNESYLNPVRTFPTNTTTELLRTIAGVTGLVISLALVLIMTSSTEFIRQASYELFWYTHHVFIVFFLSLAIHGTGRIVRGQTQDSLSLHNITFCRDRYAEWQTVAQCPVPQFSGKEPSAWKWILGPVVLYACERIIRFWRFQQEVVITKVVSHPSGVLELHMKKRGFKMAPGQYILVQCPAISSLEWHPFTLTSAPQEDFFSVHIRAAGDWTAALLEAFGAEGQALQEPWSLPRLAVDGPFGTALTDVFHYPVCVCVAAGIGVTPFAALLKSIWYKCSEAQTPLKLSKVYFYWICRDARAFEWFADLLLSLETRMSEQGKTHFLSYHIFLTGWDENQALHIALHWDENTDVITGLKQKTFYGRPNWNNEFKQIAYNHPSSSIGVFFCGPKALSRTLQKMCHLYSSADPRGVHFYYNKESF
# T1 sequence (P13498 2-195 partner limits assumed): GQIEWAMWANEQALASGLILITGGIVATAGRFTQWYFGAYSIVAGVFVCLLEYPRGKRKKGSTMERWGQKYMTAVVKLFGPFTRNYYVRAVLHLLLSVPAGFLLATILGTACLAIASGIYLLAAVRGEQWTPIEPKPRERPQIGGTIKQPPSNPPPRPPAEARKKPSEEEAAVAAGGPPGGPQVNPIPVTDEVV
# Source text: (§1) Plasmids are Purchased from Vectorbuilder. • for HEK-hNOX1 all necessary subunits are cloned accordingly: • pLV-CMV-hNOX1-puro (NM_007052.5) • pLV-CMV-hNOXO1-blas (NM_172168.3) • pLV-CMV-hp22phox-hygro (NM_000101.4) • pLV-CMV-hNOXA1-neo (NM_006647.2) • for HEK-hNOX3 • pLV-CMV-hNOX3-puro (NM_015718.3)
# (§2) 3rd generation lentiviral particles are produced in HEK293 suspension cells by transient transfection of three helper and expression plasmids. Crucial lentivirus supernatants are harvested, clarified by filtration and concentrated by precipitation. Lentivirus titers are determined in transducing units in (TU/mL) by transduction of HT1080 cells and colony forming assay. Parental HEK293 cells, purchased from CLS GmbH, are transduced with replication-incompetent 3rd generation lentiviral particles (MOI 2) and expanded for at least 2 weeks before cryopreservation of tested lots. During cultivation, medium is changed three times per week and cells are sub-cultured at least once per week. Selection antibiotics are added according to the plasmids (1 μg/ml puromycin, 1.5 μg/ml blasticidin, 200 μg/ml G418 and 100 μg/ml hygromycin).
# Evaluation of the NOX4 inhibitors on NOX3 activity is assessed in HEK293 cells stably overexpressing human NOX3 (hNOX3).
# Cells are seeded in 384 well plates for 2 days. […] Cells are then stimulated with PMA at 0.1 μM to induce NOX3-dependent ROS production. […] Luminescence is measured with an PHERAstar multimode reader.
# human NOX4 (hNOX4) = biological target: T2, human NOX4 (hNOX4) (Homo sapiens, UniProt Q9NPH5); test: cell-based
# T2 sequence (Q9NPH5 1-578): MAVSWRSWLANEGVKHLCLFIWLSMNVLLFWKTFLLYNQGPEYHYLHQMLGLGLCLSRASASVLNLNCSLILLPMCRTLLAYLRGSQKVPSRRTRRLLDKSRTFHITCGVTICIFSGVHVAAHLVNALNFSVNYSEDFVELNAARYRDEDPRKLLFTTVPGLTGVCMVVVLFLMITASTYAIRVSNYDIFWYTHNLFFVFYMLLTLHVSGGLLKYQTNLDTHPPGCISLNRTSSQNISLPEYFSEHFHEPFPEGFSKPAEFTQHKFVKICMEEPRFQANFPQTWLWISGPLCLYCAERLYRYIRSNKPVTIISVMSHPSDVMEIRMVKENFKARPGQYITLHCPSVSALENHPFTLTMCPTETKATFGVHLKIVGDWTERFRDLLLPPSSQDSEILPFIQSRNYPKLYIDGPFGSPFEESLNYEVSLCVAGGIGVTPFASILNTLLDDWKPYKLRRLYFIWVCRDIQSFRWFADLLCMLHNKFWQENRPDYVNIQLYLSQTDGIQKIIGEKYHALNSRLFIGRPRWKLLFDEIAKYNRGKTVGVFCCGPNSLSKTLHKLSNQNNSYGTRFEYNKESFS
# T2 sequence (P13498 2-195 partner limits assumed): T1 sequence (P13498 2-195 partner limits assumed)
# Protocol: The synthetic gene phNOX4_DNA3_1_Zeo (Accession: AAF68973) is assembled from synthetic oligonucleotides and/or PCR products. The fragment is cloned into pcDNA3.1_Zeo_A011 using NheI and XhoI cloning sites. The plasmid DNA is purified from transformed bacteria and its concentration is determined by UV spectroscopy. The final construct is verified by sequencing. The plasmid is transfected via electroporation (Amaxa electroporation device) in combination with Nucleofector Kit V. Selection of NOX4 overexpressing genes is achieved using selection antibiotic Zeocin.
# The inhibitory activity of the example compounds of the invention is determined using the following procedure:
# Cells are cultured in the Dulbecco's Modified Eagle Medium (DMEM) media containing 4.5 g/L glucose supplemented with 10% fetal calf serum and 250 μg/ml Zeocin in an incubator at 37° C. with 5% CO2. For the assay, cells are seeded in 384 well plates.
# After incubation Lumigen HyPerBlu™ is added and cells are incubated for additional 30 min at 24° C. in a humidified incubator. Next, luminescence is measured using an Envision Multimode Plate reader to determine levels of produced H2O2 in the wells.
# human NOX1 (hNOX1) = biological target: T3, human NOX1 (hNOX1) (Homo sapiens, UniProt Q9Y5S8); test: NOX1 inhibition assay (L-012), HEK293 cells stably overexpressing human NOX1; format: cell-based; settings: HEK293-hNOX1, PMA stimulated
# T3 construct: pLV-CMV-hNOX1-puro (NM_007052.5); host or cells: HEK293 (CLS GmbH), lentiviral transduction
# T3 sequence (Q9Y5S8 1-564): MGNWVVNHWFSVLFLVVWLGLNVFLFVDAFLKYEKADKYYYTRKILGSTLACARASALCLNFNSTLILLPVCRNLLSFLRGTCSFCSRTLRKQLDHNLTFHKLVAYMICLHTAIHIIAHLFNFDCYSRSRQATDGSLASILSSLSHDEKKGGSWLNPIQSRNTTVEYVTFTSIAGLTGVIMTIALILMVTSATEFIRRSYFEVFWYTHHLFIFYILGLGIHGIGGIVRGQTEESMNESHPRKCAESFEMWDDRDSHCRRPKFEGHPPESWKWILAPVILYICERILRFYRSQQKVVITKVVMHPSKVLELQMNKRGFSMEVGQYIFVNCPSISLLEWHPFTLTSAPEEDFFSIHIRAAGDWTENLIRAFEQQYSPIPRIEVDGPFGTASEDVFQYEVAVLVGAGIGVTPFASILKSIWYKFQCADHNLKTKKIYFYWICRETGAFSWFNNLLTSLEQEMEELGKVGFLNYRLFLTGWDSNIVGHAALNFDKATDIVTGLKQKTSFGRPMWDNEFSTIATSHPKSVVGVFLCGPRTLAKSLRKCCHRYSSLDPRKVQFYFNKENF
# T3 sequence (P13498 2-195 partner limits assumed): T1 sequence (P13498 2-195 partner limits assumed)
# Source text: as §1, §2
# Evaluation of the NOX4 inhibitors on NOX1 activity is assessed in HEK293 cells stably overexpressing human NOX1 (hNOX1).
# Lastly, 8-amino-5-chloro-2,3-dihydro-7-phenyl-pyrido[3,4-d]pyridazine-1,4-dione sodium salt (L-012, CAS 143556-24-5) is added at 400 μM to all wells, and cells are incubated in an incubator for an additional 3 h. Afterwards luminescence is measured with a SpectraMax Paradigm Microplate Reader.
IC50 (human NOX3 (hNOX3)) [nM],IC50 (human NOX4 (hNOX4)),IC50 (human NOX1 (hNOX1)) [nM],SMILES
4100,39 nM,–,"O=c1c2scnc2nc(SCc2ccc(Cl)cc2F)n1-c1cc(F)c(O)c(F)c1 [Example 2, 5-((4-Chloro-2-fluorobenzyl)thio)-6-(3,5-difluoro-4-hydroxyphenyl)thiazolo[4,5-d]-pyrimidin-7(6H)-one]"
> 100000,73 nM,1700,Cc1cc(Cl)ccc1CSc1nc2ncsc2c(=O)n1-c1cc(F)c(O)c(F)c1 [Example 3]
4100,91 nM,–,Cc1cc(F)cc(C)c1CSc1nc2ncsc2c(=O)n1-c1cc(F)c(O)c(F)c1 [Example 4]
> 100000,24 nM,300,O=c1c2scnc2nc(SCc2ccc(Cl)cc2)n1-c1cc(F)c(O)c(F)c1 [Example 5]
> 100000,87 nM,> 100000,O=c1c2scnc2nc(SCc2ccc(C(F)(F)F)cc2F)n1-c1cc(F)c(O)c(F)c1 [Example 6]
> 100000,77 nM,> 100000,O=c1c2scnc2nc(SCc2ccc(C(F)(F)F)cc2)n1-c1cc(F)c(O)c(F)c1 [Example 7]
2700,43 nM,1100,O=c1c2scnc2nc(SCc2c(F)cc(F)cc2F)n1-c1cc(F)c(O)c(F)c1 [Example 8]
3700,29 nM,1900,Cc1cc(F)ccc1CSc1nc2ncsc2c(=O)n1-c1cc(F)c(O)c(F)c1 [Example 9]
4000,27 nM,500,"O=c1c2scnc2nc(SCc2c(F)cc(F)cc2F)n1-c1cc(F)c(O)cc1F [Example 10, 6-(2,5-Difluoro-4-hydroxyphenyl)-5-((2,4,6-trifluorobenzyl)thio)thiazolo[4,5-d]pyrimidin-7(6H)-one]"
16300,42 nM,900,O=c1c2scnc2nc(SCc2c(F)cc(F)cc2F)n1-c1ccc(O)c(F)c1 [Example 11]
7600,51 nM,2900,O=c1c2scnc2nc(SCc2c(F)cc(F)cc2F)n1-c1ccc(O)c(F)c1F [Example 12]
16000,61 nM,3200,O=c1c2scnc2nc(SCc2c(F)cc(F)cc2F)n1-c1c(F)cc(O)cc1F [Example 13]
25500,38 nM,2300,O=c1c2scnc2nc(SCc2c(F)cc(F)cc2F)n1-c1ccc(O)cc1F [Example 14]
> 100000,33 nM,4100,O=c1c2scnc2nc(SCc2c(F)cc(F)cc2F)n1-c1ccc(O)cc1 [Example 15]
59100,367 nM,15000,O=c1c2scnc2nc(SCc2c(F)cc(F)cc2F)n1-c1ccc(O)c(Cl)c1 [Example 16]
61400,314 nM,14400,O=c1c2scnc2nc(SCc2c(F)cc(F)cc2F)n1-c1ccc(O)cc1Cl [Example 17]

IC50 (human NOX3 (hNOX3)) [nM],IC50 (human NOX4 (hNOX4)),IC50 (human NOX1 (hNOX1)) [nM],SMILES
400,117 nM,60,N#Cc1cc(-n2c(SCc3c(F)cc(F)cc3F)nc3ncsc3c2=O)ccc1O [Example 18]
> 100000,–,16900,O=c1c2scnc2nc(SCc2c(F)cc(F)cc2F)n1-c1ccc(O)cn1 [Example 19]
8100,127 nM,7000,O=c1c2scnc2nc(SCc2c(F)cc(F)cc2F)n1-c1cc(F)c(O)cn1 [Example 20]
> 100000,174 nM,> 100000,"O=c1c2scnc2nc(SCc2c(F)cc(F)cc2F)n1-c1ncc(O)cn1 [Example 21, 6-(5-Hydroxypyrimidin-2-yl)-5-((2,4,6-trifluorobenzyl)thio)thiazolo[4,5-d]pyrimidin-7(6H)-one]"
> 100000,69 nM,> 100000,"O=c1c2scnc2nc(SCc2ccc(Cl)cc2F)n1-c1ccc(O)nc1 [Example 22, 5-((4-Chloro-2-fluorobenzyl)thio)-6-(6-hydroxypyridin-3-yl)thiazolo[4,5-d]pyrimidin-7(6H)-one]"
> 100000,96 nM,48100,Cc1cc(Cl)ccc1CSc1nc2ncsc2c(=O)n1-c1ccc(O)nc1 [Example 23]
> 100000,98 nM,20600,Cc1cc(F)cc(C)c1CSc1nc2ncsc2c(=O)n1-c1ccc(O)nc1 [Example 24]
> 100000,100 nM and 101 nM,> 100000,O=c1c2scnc2nc(SCc2ccc(Cl)cc2)n1-c1ccc(O)nc1 [Example 25]
62100,120 nM,33000,O=c1c2scnc2nc(SCc2ccc(C(F)(F)F)cc2F)n1-c1ccc(O)nc1 [Example 26]
86800,135 nM,76000,O=c1c2scnc2nc(SCc2ccc(C(F)(F)F)cc2)n1-c1ccc(O)nc1 [Example 27]
> 100000,136 nM,27100,O=c1c2scnc2nc(SCc2c(F)cc(F)cc2F)n1-c1ccc(O)nc1 [Example 28]
> 100000,150 nM and 145 nM,33300,Cc1cc(F)ccc1CSc1nc2ncsc2c(=O)n1-c1ccc(O)nc1 [Example 29]
98100,539 nM,37800,O=c1c2scnc2nc(SCc2ccc(F)cc2)n1-c1ccc(O)nc1 [Example 30]
49400,111 nM,–,Cc1cc(Cl)ccc1CSc1nc2ncsc2c(=O)n1-c1cnc(O)nc1 [Example 54]
> 100000,124 nM,–,O=c1c2scnc2nc(SCc2ccc(C(F)(F)F)cc2F)n1-c1cnc(O)nc1 [Example 57]
